Source: PMC12668310, “High‐Throughput Synthesis and Screening of a Cyanimide Library Identifies Selective Inhibitors of ISG15‐Specific Protease mUSP18” (Angewandte Chemie (International Ed. in English), 2025)
Where two headings read alike, the source gives them in different places.

Biological target: T1, mUSP18 (Mus musculus, UniProt Q9WTV6)
T1 construct: (46-368); His-tag (N); made in house
T1 sequence (Q9WTV6 46-368): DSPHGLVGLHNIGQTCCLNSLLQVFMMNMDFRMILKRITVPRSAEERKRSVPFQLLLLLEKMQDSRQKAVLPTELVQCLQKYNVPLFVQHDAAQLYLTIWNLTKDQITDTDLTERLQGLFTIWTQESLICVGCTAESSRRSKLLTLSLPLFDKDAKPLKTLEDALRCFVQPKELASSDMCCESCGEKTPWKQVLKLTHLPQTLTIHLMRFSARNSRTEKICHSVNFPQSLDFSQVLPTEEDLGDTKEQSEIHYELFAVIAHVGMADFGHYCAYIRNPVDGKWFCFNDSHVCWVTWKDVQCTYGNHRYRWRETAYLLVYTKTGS
Assay: High-throughput screening, ISG15ct-RhoMP, single dose 1.25 µM
Assay type: biochemical, murine

[1] = mUSP18 %inhibition, carboxylic acid (CA) building block alone, read-out: %inh CA only
[2] = mUSP18 %inhibition, carboxylic acid (CA) with coupling reagents DIC/HOBT, read-out: %inh CA + DIC/HOBT

Row | inhibition at 1.25 µM [1] [%] | inhibition at 1.25 µM [2] [%] | %inh CA only (mUSP18 %inhibition, carboxylic acid (CA) building block alone) [%] | %inh CA + DIC/HOBT (mUSP18 %inhibition, carboxylic acid (CA) with coupling reagents DIC/HOBT) [%] | inhibition of mUSP18 by individual CA's and coupling reagents (screened with and without DIC/HOBt) | SMILES
1 | -0.67 | -3.53 | – | – | – | CNS(=O)(=O)c1ccc(-c2ccccc2OC(F)(F)F)c(C(=O)O)c1 [CA434]
2 | 1.25 | 15 | – | – | – | CC(C)c1nc(Cn2cc(C(=O)O)ccc2=O)cs1 [CA233]
3 | 0.85 | 3.29 | – | – | – | CC1(C(=O)O)CCCCN1C(=O)OCc1ccccc1 (stereo not drawn) [CA366]
4 | 8.58 | 6.8 | – | – | – | O=C(O)c1ncoc1-c1ccco1 [CA146]
5 | 3.86 | -1.32 | – | – | – | O=C(O)CC1(Cn2cnnn2)CCCCC1 [CA317]
6 | -7.27 | -15.7 | – | – | – | CN1CCN(CC(=O)O)CC1 [CA076]
7 | 23.1 | 14.2 | – | – | – | O=C(O)c1nc(N2CCCC2)ncc1Cl [CA090]
8 | 1.58 | 1.88 | – | – | – | O=C(O)C1CC(=O)N(CCN2CCOCC2)C1 (stereo not drawn) [CA201]
9 | 12.4 | 34 | – | – | – | O=C(O)c1cnoc1-c1cccs1 [CA104]
10 | 8.72 | 3.94 | – | – | – | Cn1nc(-c2cccnc2)cc1C(=O)O [CA268]
11 | 2.9 | 43.3 | – | – | – | COCC1CCN(c2ccc(C(=O)O)cc2)C1 (stereo not drawn) [CA313]
12 | 10.7 | 7.15 | – | – | – | O=C(O)c1noc(Cc2ccccc2F)n1 [CA121]
13 | 13.8 | 11.5 | – | – | – | O=C(O)C1CC(=O)N(c2cnccn2)C1 (stereo not drawn) [CA108]
14 | 6.76 | 33.1 | – | – | – | Cc1cc(C(=O)O)c(C)n1-c1ccon1 [CA214]
15 | 5.31 | 1.01 | – | – | – | Cc1onc(C(=O)O)c1CN1CCOCC1 [CA364]
16 | -5.69 | -4.3 | – | – | – | O=C(O)CCn1nc(C(F)(F)F)cc1C1CC1 [CA415]
17 | -4.57 | -8.55 | – | – | – | O=C(O)c1ccc(-c2nnco2)cc1 [CA383]
18 | -4.1 | 13.3 | – | – | – | CC1CN(c2ccc(C(=O)O)cn2)CC(C)O1 (stereo not drawn) [CA352]
19 | -4.83 | -18 | – | – | – | CC(C)C(=O)O [CA005]
20 | 13 | 10.7 | – | – | – | O=C(O)C1CCN(Cc2ccc(Cl)s2)CC1 [CA107]
21 | 7.63 | -2.16 | – | – | – | O=C(O)CCN1C(=O)C=CC1=O [CA011]

Row | inhibition at 1.25 µM [1] [%] | inhibition at 1.25 µM [2] [%] | %inh CA only (mUSP18 %inhibition, carboxylic acid (CA) building block alone) [%] | %inh CA + DIC/HOBT (mUSP18 %inhibition, carboxylic acid (CA) with coupling reagents DIC/HOBT) [%] | inhibition of mUSP18 by individual CA's and coupling reagents (screened with and without DIC/HOBt) | SMILES
22 | 9.99 | 2.69 | – | – | – | O=C(O)Cc1ccc(NS(=O)(=O)c2c(Cl)cccc2Cl)cc1 [CA141]
23 | -4.39 | -8.67 | – | – | – | O=C(O)CNC(=O)c1ccccc1 [CA019]
24 | 5.25 | 7.6 | – | – | – | CN(Cc1ccnn1C)C(=O)C1CCCCC1C(=O)O (stereo not drawn) [CA277]
25 | -7.18 | -13 | – | – | – | O=C(O)Cc1ccncc1 [CA017]
26 | 21 | 4.16 | – | – | – | O=C(O)c1coc(-c2cccnc2)n1 [CA210]
27 | -7.59 | -4.7 | – | – | – | Cc1ncsc1C(=O)N(C)c1ccccc1C(=O)O [CA390]
28 | 6.36 | 0.58 | – | – | – | COc1ccc(C(=O)O)cc1S(=O)(=O)N1CCCCCC1 [CA217]
29 | -2.14 | -1.07 | – | – | – | O=C(O)c1ccn(-c2ccc(C(F)(F)F)cn2)n1 [CA319]
30 | 13.5 | 12.2 | – | – | – | CN1CCN(c2ccccc2C(=O)O)CC1 [CA101]
31 | 4.09 | 0.61 | – | – | – | O=C(O)C1CC=CCC1C(=O)N1CCOCC1 (stereo not drawn) [CA359]
32 | -10.3 | -14.8 | – | – | – | Cc1ncc(C(=O)O)s1 [CA082]
33 | -7.25 | -2.38 | – | – | – | O=C(O)C1CCCN(c2ccc(Cl)nn2)C1 (stereo not drawn) [CA438]
34 | 6.54 | 3.44 | – | – | – | Cc1nc(-c2cnn(C)c2)sc1C(=O)O [CA196]
35 | 11 | 6.35 | – | – | – | O=C(O)c1occc1COc1ccccc1 [CA195]
36 | -2.43 | -10.4 | – | – | – | O=C(O)Cc1cnn(Cc2ccccc2)c1 [CA385]
37 | 0.56 | -9.05 | – | – | – | O=C(O)c1cnc(-c2cccnc2)s1 [CA450]
38 | -6.3 | -3.44 | – | – | – | Cc1onc(C(=O)O)c1CN1CCN(C)CC1 [CA413]
39 | 12.3 | 14.7 | – | – | – | O=C(O)c1csc(-c2ncccn2)n1 [CA111]
40 | -2.07 | -8.76 | – | – | – | O=C(O)C1CC(=O)N(OCc2ccccc2)C1 (stereo not drawn) [CA452]
41 | 8.67 | 6.39 | – | – | – | O=C(O)c1csc(-c2cnccn2)n1 [CA142]
42 | 2.12 | 9.77 | – | – | – | O=C(O)[1C@@H]1CCCO[1C@H]1c1ccccc1 [CA370]

Row | inhibition at 1.25 µM [1] [%] | inhibition at 1.25 µM [2] [%] | %inh CA only (mUSP18 %inhibition, carboxylic acid (CA) building block alone) [%] | %inh CA + DIC/HOBT (mUSP18 %inhibition, carboxylic acid (CA) with coupling reagents DIC/HOBT) [%] | inhibition of mUSP18 by individual CA's and coupling reagents (screened with and without DIC/HOBt) | SMILES
43 | -5.77 | -9.23 | – | – | – | O=C(O)c1cnc(Cc2ccc(F)cc2)s1 [CA380]
44 | 3.38 | 3.8 | – | – | – | O=C(O)C1(c2cccs2)CC1 [CA222]
45 | -10.1 | -0.24 | – | – | – | O=C(O)c1ccc(OCc2cccnc2)cc1 [CA399]
46 | 3.52 | 5.66 | – | – | – | O=C(O)CC1(n2cccc2)CCCCC1 [CA229]
47 | -5.52 | -6.68 | – | – | – | O=C(O)c1cccnc1Oc1ccc(Cl)cc1Cl [CA427]
48 | -5.36 | -14.2 | – | – | – | N#CCC(=O)O [CA070]
49 | -3.61 | -0.87 | – | – | – | O=C(O)c1nn(-c2ccccc2)c(=O)[nH]c1=O [CA441]
50 | -0.58 | -8.94 | – | – | – | O=C(O)c1cccc2cc3ccccc3cc12 [CA069]
51 | -0.99 | -7.69 | – | – | – | O=C(O)c1cccc(Oc2nccs2)c1 [CA433]
52 | 7.48 | 7.42 | – | – | – | O=C(O)c1cnn(-c2ccncc2)c1 [CA125]
53 | 3.02 | 10.3 | – | – | – | Cc1cc(-c2nc(C)sc2CC(=O)O)c(C)s1 [CA184]
54 | 10.9 | -1.55 | – | – | – | O=C(O)c1occc1-c1ccccc1 [CA354]
55 | 4.52 | 3.13 | – | – | – | O=C(O)Cc1csc(-n2cccc2)n1 [CA183]
56 | 13.6 | 10.8 | – | – | – | O=C(O)c1cc(-n2ccnc2)ccn1 [CA106]
57 | 9.91 | -2.33 | – | – | – | CCn1ccc(-c2cc(C(=O)O)no2)n1 [CA447]
58 | 3.55 | 10.3 | – | – | – | O=C(O)C1=NNC(=O)C1c1ccccc1 (stereo not drawn) [CA252]
59 | -2.51 | -6.89 | – | – | – | O=C(O)c1ccccc1Cn1cncn1 [CA384]
60 | -10.9 | -0.86 | – | – | – | O=C(O)c1cccc(S(=O)(=O)N2CCOCC2)c1 [CA422]
61 | 7.41 | -1.93 | – | – | – | O=C(O)c1ccc(Cn2cccn2)s1 [CA355]
62 | -0.48 | -0.48 | – | – | – | O=C(O)C(c1ccccc1)n1cnnn1 (stereo not drawn) [CA225]
63 | -1.76 | 7.93 | – | – | – | O=C(O)c1cccnc1-n1cncn1 [CA375]

Row | inhibition at 1.25 µM [1] [%] | inhibition at 1.25 µM [2] [%] | %inh CA only (mUSP18 %inhibition, carboxylic acid (CA) building block alone) [%] | %inh CA + DIC/HOBT (mUSP18 %inhibition, carboxylic acid (CA) with coupling reagents DIC/HOBT) [%] | inhibition of mUSP18 by individual CA's and coupling reagents (screened with and without DIC/HOBt) | SMILES
64 | -2.15 | 1.46 | – | – | – | O=C(O)Cc1ccc(OCCOc2ccccc2)cc1 [CA296]
65 | 8.54 | 5.44 | – | – | – | O=C(O)C1CCN(c2ccc(=O)[nH]n2)CC1 [CA173]
66 | -0.18 | -12.3 | – | – | – | CC(C)CC(=O)O [CA003]
67 | 12.1 | 4.09 | – | – | – | O=C(O)C1(n2cnnn2)CC1 [CA118]
68 | -3.79 | 17 | – | – | – | O=C(O)c1cccnc1-n1cccn1 [CA430]
69 | 2.04 | 3.97 | – | – | – | Cc1cc(NS(=O)(=O)c2cccc(C(=O)O)c2)no1 [CA180]
70 | 2.85 | 8.46 | – | – | – | Cc1nc(-c2ncccn2)sc1C(=O)O [CA159]
71 | 21.6 | 14.7 | – | – | – | O=C(O)Cc1cc(-c2ccccc2)on1 [CA098]
72 | 9.56 | -5.24 | – | – | – | O=Cc1ccc(C(=O)O)cc1 [CA037]
73 | 15.3 | 13.1 | – | – | – | O=C(O)Cc1csc(-c2cnccn2)n1 [CA092]
74 | – | – | -8.05 | -15.25 | – | Cc1ccc(Br)c(C(=O)O)c1 [CA053]
75 | -0.67 | 11.7 | – | – | – | Cn1nc(C(=O)O)cc1-c1cccnc1 [CA256]
76 | 71.2 | 56.5 | – | – | could inhibit mUSP18 | O=C(O)c1sccc1-n1cccc1 [CA392]
77 | -4.83 | -14.7 | – | – | – | CCCC(=O)O [CA007]
78 | 1.65 | 7.2 | – | – | – | O=C(O)c1cc(C2CCCCC2)[nH]n1 [CA248]
79 | -2.04 | 0.0181 | – | – | – | O=C(O)C1CN(C(=O)OCc2ccccc2)CCO1 (stereo not drawn) [CA300]
80 | 14.3 | -1.37 | – | – | – | O=C(O)c1cccc(S(=O)(=O)NCC2CCCO2)c1 (stereo not drawn) [CA139]
81 | 0.13 | 5.09 | – | – | – | O=C(O)c1cnc(COc2ccccc2)s1 [CA154]

Row | SMILES | inhibition at 1.25 µM [1] [%] | inhibition at 1.25 µM [2] [%] | %inh CA only (mUSP18 %inhibition, carboxylic acid (CA) building block alone) [%] | %inh CA + DIC/HOBT (mUSP18 %inhibition, carboxylic acid (CA) with coupling reagents DIC/HOBT) [%] | inhibition of mUSP18 by individual CA's and coupling reagents (screened with and without DIC/HOBt)
82 | O=C(O)c1cnn(CCN2CCCC2)c1 [CA221] | 5.71 | 3.5 | – | – | –
